Measurements from patent US20210380595A1 (ARAXES PHARMA LLC, priority 2018, published 2021).

Target: T1, KRAS G12C 1-169, his-tagged protein, GDP-loaded (Homo sapiens, UniProt P01116, G12C)
T1 construct: KRAS G12C 1-169, his-tagged protein, GDP-loaded
Assay: Biochemical assay: covalent modification of KRAS G12C measured by mass spectrometry (RapidFire/TOF or Q-Exactive)
Format: binding
Protocol: Test compounds were prepared as 10 mM stock solutions in DMSO (Fisher cat. #BP-231-100). KRAS G12C 1-169, his-tagged protein, GDP-loaded is diluted to 2 μM or 0.5 μM in buffer (20 mM Hepes, 150 mM NaCl, 1 mM MgCl2). Compounds were tested for activity as follows:
Compounds were diluted to 50× final test concentration in DMSO in 96-well storage plates. Compound stock solutions were vortexed before use and observed cwerefully for any sign of precipitation. Dilutions were as follow: • For 32 μM final compound concentration, compounds were diluted to 1600 μM (3 μL 10 mM compound stock +15.75 μL DMSO and mixed well by pipetting. • For 8 μM final compound concentration, compounds were diluted to 400 μM (2 μL 10 mM compound stock +48 μL DMSO) and mixed well by pipetting. 49 μL of the stock protein solution was added to each well of a 96-well PCR plate (Fisher cat#1423027). 1 μl of the diluted 50× compounds were added to appropriate wells in the PCR plate using 12-channel pipettor. Reactions were mixed carefully and thoroughly by pipetting up/down with a 200 μL multi-channel pipettor. The plate was sealed well with aluminum plate seal, and protein and compound were allowed to react for a desired amount of time. 5 μL of 2% formic acid (Fisher cat#A117) in de-ionized H2O was then added to each well followed by mixing with a pipette to quench the reaction. The plate was then resealed with aluminum seal and stored frozen on dry ice until analyzed as described below.
The above described assays were analyzed by mass spectrometry according to one of the following two procedures:
The MS instrument was set to positive polarity, 2 GHz resolution, and low mass (1700) mode and allowed to equilibrate for 30 minutes. The instrument was then calibrated, switched to acquisition mode and the appropriate method loaded.
After another 30 minute equilibration time, a blank batch (i.e., buffer) was run to ensure equipment is operating properly. The samples were thawed at 37° C. for 10 minutes, briefly centrifuged, and transfered to the bench top. Wells A1 and H12 were spiked with 1 μL 500 μM internal standard peptide, and the plates centrifuged at 2000×g for 5 minutes. The method was then run and masses of each individual well recorded.
The masses (for which integration data is desired) for each well were pasted into the platemap and exported from the analysis. Masses for the internal standards were exported as well. The data at 50 ppm was extracted for the +19 charge state, and identity of well A1 was assigned using the internal standard spike and integrated. Peak data was exported as a TOF list and the above steps were repeated individually, for the +20, +21, +22, +23, +24, and +25 charge states.
The masses and peak intensities of KRAS G12C protein species were measured using a Dionex RSLCnano system (Thermo Scientific) connected to a Q Exactive Plus mass spectrometer (Thermo Scientific).
20 μL of sample was loaded onto a Aeris™ 3.6 μm WIDEPORE C4 200 Å, LC Column 50×2.1 mm column maintained at 40° C. at a flow rate of 600 μL/min with 80% Solvent A (0.1% formic acid in H2O) and 20% Solvent B (0.1% formic acid in acetonitrile). The liquid chromatography conditions were 20% solvent B for 1 minute, 20% to 60% solvent B for 1.5 minutes, 60% to 90% solvent for 0.5 minute, 90% solvent B for 0.2 minute, 90% to 20% solvent B for 0.2 minute, and then equilibrated for 1.6 minute before the following sample injection. The flow rate was maintained at 600 μL/min throughout the sample analysis.
The mass spectrometer was operated in profile mode at a resolution of 17500, 5 microscans, using 50 msec max injection time and an AGC target of 1×10^6, and a full mass range from 800-1850 m/z was recorded. The intact protein mode was applied for optimal ion transfer and maximum sensitivity. The ionization method was electrospray ionization, which used a spray voltage of 4 kV, sheath gas flow set to 50 AU, auxiliary gas flow set to 10 AU and sweep gas flow set to 1 AU. […]

[1] = tested at a concentration of 8 μM

SMILES | Bind % [1] | Bind % (tested at 32 μM)
C=CC(=O)N1CC2(CCN(c3cc(OC[C@@H]4CCCN4C)cc(-c4c(C)ccc5cnn(C)c45)c3C#N)C2)C1 [Compound I-40, 2-(2-acryloyl-2,6-diazaspiro[3.4]octan-6-yl)-6-(1,6-dimethyl-1H-indazol-7-yl)-4-(((S)-1-methylpyrrolidin-2-yl)methoxy) benzonitrile] | +++ (+++ indicates binding activity greater than 75%) | 
C=CC(=O)N1CC2(CCN(c3cc(N4CCC(N5CCN(C)CC5)CC4)cc(-c4c(C)ccc5[nH]ncc45)c3C#N)C2)C1 [Compound I-39, 2-(2-acryloyl-2,6-diazaspiro[3.4]octan-6-yl)-6-(5-methyl-1H-indazol-4-yl)-4-(4-(4-methylpiperazin-1-yl)piperidin-1-yl)benzonitrile] | +++ (+++ indicates binding activity greater than 75%) | 
C=CC(=O)N1CC2(CCN(c3cc(N(C)CCN4CCCC4)c(F)c(-c4c(C)ccc5[nH]ncc45)c3C#N)CC2)C1 [Compound I-131, 6-(2-acryloyl-2,7-diazaspiro[3.5]nonan-7-yl)-3-fluoro-4-(methyl(2-(pyrrolidin-1-yl)ethyl)amino)-2-(5-methyl-1H-indazol-4-yl)benzonitrile] |  | + (+ indicates binding activity greater than 0% and up to 50%)
CC#CC(=O)N1CC2(CCCN(c3cc(OCc4ccccn4)cc(-c4c(C)ccc5[nH]ncc45)c3C#N)C2)C1 [Compound I-79, 2-(2-(but-2-ynoyl)-2,6-diazaspiro[3.5]nonan-6-yl)-6-(5-methyl-1H-indazol-4-yl)-4-(pyridin-2-ylmethoxy) benzonitrile] |  | + (+ indicates binding activity greater than 0% and up to 50%)
C=CC(=O)N1CC2(CCN(c3ccc(F)c(-c4c(C)ccc5[nH]ncc45)c3C#N)CC2)C1 [Compound I-111, 6-(2-acryloyl-2,7-diazaspiro[3.5]nonan-7-yl)-3-fluoro-2-(5-methyl-1H-indazol-4-yl)benzonitrile] |  | + (+ indicates binding activity greater than 0% and up to 50%)
C=CC(=O)N1CC2(CCN(c3cc(OC)c(Cl)c(-c4c(C)ccc5[nH]ncc45)c3C#N)CC2)C1 [Compound I-132, 6-(2-acryloyl-2,7-diazaspiro[3.5]nonan-7-yl)-3-chloro-4-methoxy-2-(5-methyl-1H-indazol-4-yl)benzonitrile] |  | + (+ indicates binding activity greater than 0% and up to 50%)
CC#CC(=O)N1CCC2(CCN(c3cc(OCc4ccccn4)cc(-c4c(C)ccc5[nH]ncc45)c3C#N)C2)C1 (stereo not shown) [Compound I-56, 2-(7-(but-2-ynoyl)-2,7-diazaspiro[4.4]nonan-2-yl)-6-(5-methyl-1H-indazol-4-yl)-4-(pyridin-2-ylmethoxy) benzonitrile] |  | + (+ indicates binding activity greater than 0% and up to 50%)
CC#CC(=O)N1CC2(C1)CN(c1cc(OCc3ccccn3)cc(-c3c(C)ccc4[nH]ncc34)c1C#N)C2 [Compound I-73, 2-(6-(but-2-ynoyl)-2,6-diazaspiro[3.3]heptan-2-yl)-6-(5-methyl-1H-indazol-4-yl)-4-(pyridin-2-ylmethoxy) benzonitrile] |  | + (+ indicates binding activity greater than 0% and up to 50%)
CC#CC(=O)N1CCCC2(C1)CN(c1cc(OCc3ccccn3)cc(-c3c(C)ccc4[nH]ncc34)c1C#N)C2 [Compound I-67, 2-(6-(but-2-ynoyl)-2,6-diazaspiro[3.5]nonan-2-yl)-6-(5-methyl-1H-indazol-4-yl)-4-(pyridin-2-ylmethoxy) benzonitrile] |  | + (+ indicates binding activity greater than 0% and up to 50%)
C=CC(=O)N1CC2(CCN(c3cc(OC[C@@H]4CCCN4C)c(F)c(-c4c(C)ccc5[nH]ncc45)c3C#N)CC2)C1 [Compound I-128, 6-(2-acryloyl-2,7-diazaspiro[3.5]nonan-7-yl)-3-fluoro-2-(5-methyl-1H-indazol-4-yl)-4-(((S)-1-methylpyrrolidin-2-yl)methoxy) benzonitrile] |  | + (+ indicates binding activity greater than 0% and up to 50%)
C=CC(=O)N1CCC2(CC1)CN(c1ccc(F)c(-c3c(C)ccc4[nH]ncc34)c1C#N)C2 [Compound I-96, 6-(7-acryloyl-2,7-diazaspiro[3.5]nonan-2-yl)-3-fluoro-2-(5-methyl-1H-indazol-4-yl)benzonitrile] |  | + (+ indicates binding activity greater than 0% and up to 50%)
Cc1ccc2cnn(C)c2c1-c1c(F)ccc(N2CCC3(CN(C(=O)/C=C/CN(C)C)C3)C2)c1C#N [Compound I-47, (E)-2-(1,6-dimethyl-1H-indazol-7-yl)-6-(2-(4-(dimethylamino)but-2-enoyl)-2,6-diazaspiro[3.4]octan-6-yl)-3-fluorobenzo-nitrile] |  | + (+ indicates binding activity greater than 0% and up to 50%)
CC#CC(=O)N1CCC2(CCN(c3cc(OCc4ccccn4)cc(-c4c(C)ccc5[nH]ncc45)c3C#N)CC2)C1 [Compound I-53, 2-(2-(but-2-ynoyl)-2,8-diazaspiro[4.5]decan-8-yl)-6-(5-methyl-1H-indazol-4-yl)-4-(pyridin-2-ylmethoxy) benzonitrile] |  | + (+ indicates binding activity greater than 0% and up to 50%)
CC#CC(=O)N1CCC2(C1)CN(c1cc(OCc3ccccn3)cc(-c3c(C)ccc4[nH]ncc34)c1C#N)C2 [Compound I-49, 2-(6-(but-2-ynoyl)-2,6-diazaspiro[3.4]octan-2-yl)-6-(5-methyl-1H-indazol-4-yl)-4-(pyridin-2-ylmethoxy) benzonitrile] |  | + (+ indicates binding activity greater than 0% and up to 50%)
C=CC(=O)N1CC2(CCN(c3ccc(OCCCN(C)C)c(-c4c(C)ccc5[nH]ncc45)c3C#N)CC2)C1 [Compound I-83, 6-(2-acryloyl-2,7-diazaspiro[3.5]nonan-7-yl)-3-(3-(dimethylamino)propoxy)-2-(5-methyl-1H-indazol-4-yl)benzonitrile] |  | + (+ indicates binding activity greater than 0% and up to 50%)
C=CC(=O)N1CC2(CCN(c3cc(OCc4ccccn4)cc(-c4c(C)ccc5[nH]ncc45)c3C#N)CC2)C1 [Compound I-50, 2-(2-acryloyl-2,7-diazaspiro[3.5]nonan-7-yl)-6-(5-methyl-1H-indazol-4-yl)-4-(pyridin-2-ylmethoxy) benzonitrile] | + (+ indicates binding activity greater than 0% and up to 50%) | 
C=CC(=O)N1CC2(CCN(c3cc(N4CCOCC4)c(F)c(-c4c(C)ccc5cnn(C)c45)c3C#N)CC2)C1 [Compound I-97, 6-(2-acryloyl-2,7-diazaspiro[3.5]nonan-7-yl)-2-(1,6-dimethyl-1H-indazol-7-yl)-3-fluoro-4-morpholino-benzonitrile] |  | + (+ indicates binding activity greater than 0% and up to 50%)
CC#CC(=O)N1CCCC2(CCN(c3cc(OCc4ccccn4)cc(-c4c(C)ccc5[nH]ncc45)c3C#N)C2)C1 (stereo not shown) [Compound I-74, 2-(7-(but-2-ynoyl)-2,7-diazaspiro[4.5]decan-2-yl)-6-(5-methyl-1H-indazol-4-yl)-4-(pyridin-2-ylmethoxy) benzonitrile] |  | + (+ indicates binding activity greater than 0% and up to 50%)
CC#CC(=O)N1CCC2(CC1)CN(c1cc(OCc3ccccn3)cc(-c3c(C)ccc4[nH]ncc34)c1C#N)C2 [Compound I-64, 2-(7-(but-2-ynoyl)-2,7-diazaspiro[3.5]nonan-2-yl)-6-(5-methyl-1H-indazol-4-yl)-4-(pyridin-2-ylmethoxy) benzonitrile] |  | + (+ indicates binding activity greater than 0% and up to 50%)
